In a melting point compilation (Tetko et al.; mined from patent text by program, amines drawn as free bases though some values may be those of a salt):
Residues, ends and D or L forms follow the SMILES beside them. *: point of attachment. Piv = CC(C)(C)C(=O)*

Compared with `Clc1ccc2nc(-c3ccc(Cl)s3)cn2n1`, `Clc1ccc(Cc2c(Cl)nc3ncnn3c2Cl)cc1` is lower in melting point: 226 to 230 °C for the first, 165 to 167 °C for the second.

Compared with `COc1ccc2c(c1)C(N)(CCC#N)C(=O)N2c1ccc(F)cc1` (stereo not drawn), `CCOC(=O)c1ccccc1OCC(O)COc1ccc(F)cc1` (stereo not drawn) is lower in melting point: 136 to 138 °C for the first, 112 to 114 °C for the second.

First: SC1=Nc2ccccc2SN1
Second: CCc1ccccc1CC1CNC(=O)O1 (stereo not drawn)
The melting point of the first is higher: 198 to 199 °C for the first, 104 to 105 °C for the second.

Compared with `CCc1nc(O)c2c(n1)c(C)nn2C`, `COCc1nc2nccnc2c(=O)[nH]1` is lower in melting point: 220 to 222 °C for the first, 187 to 189 °C for the second.

`COC(=O)C1(NC(=O)Cc2cc(Br)c(F)cc2C)CCN(OC)CC1` and `COc1c(N2CCCC(CN)C2)c(F)cc2c(=O)c(C(=O)O)cn(C3CC3)c12` (stereo not drawn) fall in the same range of melting point: 192 to 193 °C for the first, 192 to 193 °C for the second.

First: CC(C)CCCC(C)NC(=O)Oc1ccc(Oc2ccccc2)cc1Br (stereo not drawn)
Second: COC(=O)Oc1cc(NC(=O)OCc2ccccc2)c(F)cc1Cl
The melting point of the first is lower: 64 to 67 °C for the first, 70 to 72 °C for the second.

`O=C(O)C(=O)Nc1coc2ccccc2c1=O` and `Cn1nc(C(=O)O)c(=O)n(-c2ccccc2)c1=O` cannot be ordered by melting point: 195 to 197 °C for the first, 195 to 198 °C for the second.

First: Cc1cc(S(=O)(=O)O)ccc1NC(=O)NN
Second: CC(=O)Nc1ccc(S(=O)(=O)NCCc2ccccc2)cc1
The melting point of the first is higher: 252 to 255 °C for the first, 98 °C for the second.

`O=C1NC(=O)c2cc(CCCCCN3CCC(c4nc(-c5ccncc5)c(-c5ccc(Cl)c(Cl)c5)[nH]4)CC3)ccc21` and `CCCCc1nn(-c2ccc(NCc3ccccc3)cc2C(F)(F)F)c(=O)n1Cc1ccc(-c2ccccc2S(=O)(=O)NC(=O)c2ccccc2Cl)cc1` cannot be ordered by melting point: 129 to 134 °C for the first, > 107 °C for the second.

First: O=c1oc(=O)c2ccsc2c2sccc12
Second: Cc1c(C(=O)c2ccc(Cl)cc2)oc2cccc(O)c12
The melting point of the first is higher: 260 to 263 °C for the first, 238 to 241 °C for the second.

First: Cc1nn(-c2ccccn2)c2[nH]c3ccc(S(C)=O)cc3c(=O)c12 (stereo not drawn)
Second: CN(C)C(=O)c1nn(-c2cccc(F)c2)c(=O)c2c1c1ccc(Cl)cc1n2C
The melting point of the first is higher: 268 to 269 °C for the first, 208 to 209 °C for the second.

Compared with `N#CC(O)COc1ccccc1` (stereo not drawn), `COC(c1ccccc1)C(C)O` (stereo not drawn) is higher in melting point: 59 °C for the first, 104 to 106 °C for the second.

First: N#C/C=C1\CCCCC1n1nc(-c2c(-c3ccccc3)nn3ccccc23)ccc1=O (stereo not drawn)
Second: Cn1nc(-c2ccccc2)c(Oc2ccc(N)cc2)c1-c1ccccc1
The melting point of the first is lower: 70 to 72 °C for the first, 167 to 169 °C for the second.

Compared with `NC(=NCC(F)(F)F)Nc1ccnc(CCCO)n1`, `COc1cccc(OCCCc2cn(-c3ccc(C(F)(F)F)cn3)nc2C(C)C)c1CC(=O)O` is higher in melting point: 136 to 138 °C for the first, 183 to 184 °C for the second.

First: c1cc(-c2nc(COC3CCCCO3)no2)sc1CN1CCCCCC1 (stereo not drawn)
Second: O=S1(=O)NC(Cc2ccccc2)Nc2ccc(S(=O)(=O)N3CCCCC3)cc21 (stereo not drawn)
The melting point of the first is lower: 79 to 81 °C for the first, 242 to 244 °C for the second.

Compared with `Cc1nnsc1C(=O)Nc1ccc(-n2nc(-c3nccs3)cc2C#N)cc1`, `Cn1cc(C#N)n(-c2ccc(Cl)cc2)c1=O` is lower in melting point: 230 °C for the first, 149 to 151 °C for the second.

Compared with `CC(C)(C)Cc1ccc2c(c1)C(=O)c1ccccc1C2=O`, `CNC(=S)NS(=O)(=O)c1cc(CCNC(=O)c2cc(Cl)ccc2OC)ccc1-c1ccco1` is higher in melting point: 93.8 °C for the first, 145 to 146 °C for the second.

First: O=C(CCNC(=O)[C@@H](O)Cc1ccccc1)OCc1ccccc1
Second: C=C1C(=O)N[C@@H](Cc2ccccc2)C(=O)N1Cc1ccccc1
The melting point of the first is lower: 34 to 38 °C for the first, 124 to 127 °C for the second.

First: O=C(O)CN(CC(CO)N(CCCO)CC(=O)O)CC(CO)N(CCCO)CC(=O)O (stereo not drawn)
Second: CCCCNC(=O)OCC(=O)O
The melting point of the first is higher: 173 to 177 °C for the first, 83 to 84 °C for the second.

First: C=CC(=O)NC(C(=O)OCC)C(=O)OCC
Second: CCOC(=O)C(Cl)C(=O)Nc1ccc(Cl)cc1 (stereo not drawn)
The melting point of the first is higher: 105 to 106 °C for the first, 104 to 105 °C for the second.

Compared with `O=C(N1CC(CCl)c2c1cc([N+](=O)[O-])c1ccccc21)C(F)(F)F` (stereo not drawn), `CNC(=O)N1N=C(c2ccc([N+](=O)[O-])cc2)c2ccc(Cl)cc2CC1C` (stereo not drawn) is higher in melting point: 182 °C for the first, 224 to 226 °C for the second.

First: CCCOc1ccc(N(C)S(=O)(=O)c2ccc(C)cc2)c([N+](=O)[O-])c1
Second: Cc1ccc(/C=C/c2ccc(Cl)cc2[N+](=O)[O-])c([N+](=O)[O-])c1
The melting point of the first is lower: 93 to 94 °C for the first, 230 °C for the second.

First: CCCCCC(O)CNCCCCCCCCNCC(O)CCCCC (stereo not drawn)
Second: CCCCCCCCCCCCCCCCc1c(O)c(CN(C)C(=O)Oc2cccc([N+](=O)[O-])c2)c(CCC)c(O)c1CN(C)C(=O)Oc1cccc([N+](=O)[O-])c1
The melting point of the first is higher: 128 to 133 °C for the first, 89 to 95 °C for the second.

First: Cc1cccc2c1C1(COc3cc4c(cc31)OCO4)C(=O)N2Cc1ccc(C(F)(F)F)o1 (stereo not drawn)
Second: N#Cc1cnn2c(C(F)(F)F)cc(-c3cccc(F)c3)nc12
The melting point of the first is lower: 117 to 119 °C for the first, 199 °C for the second.

First: CC(C)Nc1n[nH]c(=O)n1N
Second: CC(C)CC(=O)Nc1c(C(=O)c2ccoc2)[nH]c2cc(Cl)ccc12
The melting point of the first is lower: 150 to 152 °C for the first, 202 to 203 °C for the second.

First: O=C(CCn1ccnc1)Cc1c(Cl)cccc1Cl
Second: O=c1ccn(CCO)c(C(O)c2cccnc2)c1O (stereo not drawn)
The melting point of the first is lower: 98.5 to 102 °C for the first, 189 to 190 °C for the second.

Compared with `COc1ccc(/C=C/C(=O)C2C(=O)CC(c3ccc(OC)cc3)C([N+](=O)[O-])C2c2cccc([N+](=O)[O-])c2)cc1` (stereo not drawn), `CC1(C)CCC(C)(C)c2cc(-c3cc(-c4ccc(C(=O)O)cc4)ccc3-c3cccc(O)c3)ccc21` is lower in melting point: 204 to 206 °C for the first, < 70 °C for the second.

Compared with `Fc1ccc(-c2cc(Cl)c3ccccc3n2)cc1`, `O=C1CCCc2nc3ccccc3c(NCc3ccc(Cl)cc3)c21` is higher in melting point: 90 to 93 °C for the first, 162 to 164 °C for the second.

First: CN(C)c1ccc(-c2cc3nccnc3[nH]2)cc1CCC(=O)O
Second: CN(CCNc1ccc2ncc(-c3ccccc3)n2n1)C(=O)OC(C)(C)C
The melting point of the first is higher: 269 to 271 °C for the first, 150 to 151 °C for the second.

Compared with `COc1ccc(C2(C)CCC(=O)O2)cc1OC` (stereo not drawn), `COc1cc(-c2ncn(C)c2-c2ccc3c(c2)NCCO3)cc(OC)c1OC` is higher in melting point: 71.2 °C for the first, 160 to 162 °C for the second.

Compared with `CNC(=O)c1cccnc1CC(=O)c1ccc(Cl)cc1`, `CC(=O)OC1CC2(CCN(CCCC(=O)c3ccc(F)cc3)C2)c2ccccc21` (stereo not drawn) is lower in melting point: 162 to 163 °C for the first, 154 to 156 °C for the second.

Compared with `CC(C)C(=O)NCCc1ccc(NC(=O)C=C2CC(C(=O)O)Nc3cc(Cl)cc(Cl)c32)cc1` (racemic), `CCOc1ccc(C=O)c(Oc2ccc(Cl)cc2Cl)n1` is lower in melting point: 216 to 218 °C for the first, 95 to 96 °C for the second.

Compared with `O=C(NS(=O)(=O)c1ccccc1)c1cccc(C[C@@H]2COc3ccc(OCc4nc5cc(F)ccc5s4)cc3[C@@H]2O)c1`, `O=C(O)/C(=N/OCc1ccccc1)c1ccc(OCCOc2ccc3ccccc3c2)s1` is lower in melting point: 161 to 162 °C for the first, 103 to 104 °C for the second.

Compared with `COc1cccc2c(=O)c3c(O)cc(OCC(O)CCl)cc3oc12` (stereo not drawn), `COc1ccccc1N1CCN(CC(O)COc2cc(C)c(O)c(C)c2C)CC1` (stereo not drawn) is lower in melting point: 184 °C for the first, 163 to 165 °C for the second.

First: CCOCCOc1ccc(OCc2ccccc2)cc1
Second: O=Cc1c(F)cccc1NCc1ccccc1
The melting point of the first is lower: 35 to 37 °C for the first, 72.5 to 74.5 °C for the second.

Compared with `CN1C=C(C(=O)O)C(C(=N)O)=NC1N1CCN(Cc2ccccc2)CC1` (stereo not drawn), `c1ccc(CN2CCN(c3nc4nccc(-c5cccnc5)n4n3)CC2)cc1` is lower in melting point: 158 to 160 °C for the first, 149 to 150 °C for the second.

First: CCN(CC)CC1COCCN1CCNC(=O)N1c2ccccc2C(=O)Nc2cccnc21 (stereo not drawn)
Second: C=C(C)CN1CCN(CC(=O)N2c3ccccc3C(=O)Nc3cccnc32)CC1
The melting point of the first is lower: 150 to 151 °C for the first, 205 to 207 °C for the second.

First: CCCCS(=O)(=O)Nc1cccc(Oc2cccc3cccnc23)c1
Second: OC(CCc1ccccc1)c1cc2ccncc2[nH]1 (stereo not drawn)
The melting point of the first is lower: 107 to 108 °C for the first, 162 to 166 °C for the second.

First: O=C1C(Br)=C(c2cn(S(=O)(=O)c3ccccc3)c3ccccc23)C(=O)N1COCc1ccccc1
Second: O=C(O)Cn1c(=O)c(=O)[nH]c2cc(C(F)(F)F)c(-n3ccc(CNCc4ccccc4)c3)cc21
The melting point of the first is lower: 49 to 51 °C for the first, > 300 °C for the second.

Compared with `CC1(C)Oc2ccc(OC(F)(F)F)cc2[C@@H](NC(=O)c2ccco2)[C@@H]1O` (relative stereo), `COC(=O)c1c(OC)cc(C(F)(F)F)nc1C(F)(F)F` is lower in melting point: 146 to 147 °C for the first, 101 to 103 °C for the second.

First: c1ccc(-c2ccc3nc4c(nc3c2)-c2cccc3cccc-4c23)cc1
Second: c1ccc(-c2cccc(-n3cnc4cc(-n5cccc5)ccc43)c2)nc1
The melting point of the first is higher: 194 to 195 °C for the first, 147 to 148 °C for the second.

Compared with `CC(=O)NC12CC3(C)CC(C)(CC(CO)(C3)C1)C2`, `CCNC(=O)[C@@H]1CCCN1C(=O)[C@H](C)NC(=O)C(C)(C)C` (Piv-Ala-Pro-NHEt) is lower in melting point: 152 to 153 °C for the first, 94 to 96 °C for the second.

Compared with `O=C1COCC(=O)NCCOCCOCCN1`, `COc1cn(-c2ccc(N3CCOCC3)c(F)c2F)nc(-c2ccnn2-c2ccccc2)c1=O` is higher in melting point: 147 to 148 °C for the first, 182 to 183 °C for the second.

Compared with `CNC(=O)c1ccccc1Nc1nc(Nc2cc3c(cc2OC)N(C)C(=O)OCC3)ncc1Br`, `CN(C)[C@H]1CCN(c2c(-c3ccccc3)cc(C#N)c3oc(C(C)(C)C)cc23)C1` is lower in melting point: 227 to 228 °C for the first, 46 to 48 °C for the second.

First: NS(=O)(=O)N1CCN(c2ccc(Cl)cc2)CC1
Second: CON=C(Cl)c1ccccc1S(N)(=O)=O
The melting point of the first is higher: 218 to 220 °C for the first, 155 to 158 °C for the second.

Compared with `Oc1c(F)cc(Cn2cc[nH]c2=S)cc1F`, `O=C(O)c1ccc2c(c1)S(=O)c1cc(F)ccc1C=C2` (stereo not drawn) is higher in melting point: 188 °C for the first, 255 to 257 °C for the second.

Compared with `CCCc1c2nc(C(=O)OC)cc(Cl)c2cc2c(=O)cc(C(=O)OCC)oc12`, `CCN(CC)CCNC(=O)c1cc(Cl)c(N)cc1OCCO` is lower in melting point: 176 to 178 °C for the first, 144 to 146 °C for the second.

First: COC(=O)NCCCCC1CCSS1 (stereo not drawn)
Second: CC(C)(C)OC(=O)N[C@H]1COC1=O
The melting point of the first is lower: 31 to 32 °C for the first, 120 to 122 °C for the second.

First: N[C@@H](Cc1ccc(CC(F)(F)C(F)(F)F)cc1)[C@H](O)c1cccc(Cl)c1 (racemic)
Second: Oc1ccc([C@@H]2C[C@H]2c2ccc(O)cc2)cc1 (relative stereo)
The melting point of the first is lower: 109 to 110 °C for the first, 190 to 191 °C for the second.

Compared with `O=[N+]([O-])c1ccc2c(ccn2CCCCl)c1`, `CC1(c2cccc(NS(C)(=O)=O)c2)C2CN(C(=O)CCc3ccsc3)CC21` (stereo not drawn) is higher in melting point: 74 to 76 °C for the first, 180 °C for the second.

Compared with `CCCCCCCCn1sc(Cl)c(Cl)c1=O`, `COC(=S)N=C(N)SC` is higher in melting point: 44 to 47 °C for the first, 75 to 76 °C for the second.

For `CC(C)(C)C(=O)OCC1OC(OC(=O)C(C)(C)C)C(OC(=O)C(C)(C)C)C(OC(=O)C(C)(C)C)C1OC(=O)C(C)(C)C` (stereo not drawn), the melting point was 153 to 156 °C.
